Values of other authors as cited in patent US20050250788A1, “Aqueous outflow enhancement with vasodilated aqueous cavity” (priority 2004, published 2005).
Where a name gives a salt, the structure may show the parent alone. One block for each compound: values may come before it.

Legend:
[1] = at low concentrations
[2] = not given; remark: listed apart in the source
[3] = chronic, patients with essential hypertension
[4] = for area under the plasma concentration time curve / mean peak plasma concentration (C(max)): multiple oral once-daily doses of 200 mg
[5] = not given; remark: listed apart in the source
[6] = system: adrenergic (alpha(1), alpha(2) and beta), cholinergic, GABA, dopaminergic, histaminergic, serotonergic (5-HT1A, 5-HT1B, 5-HT2) or benzodiazepine binding sites
[7] = system: norepinephrine and dopamine neuronal reuptake
[8] = placebo-controlled, normal volunteers
[9] = topical

Compound: COc1ccccc1OCCNCC(O)c1ccc(C)c(S(N)(=O)=O)c1 (stereo not drawn) [5-[1-hydroxy-2-[2-(2-methoxyphenoxyl)ethylamino]ethyl]-2-methylbenzenesulfonamide]
intraocular pressure reducing activity [1]: excellent intraocular pressure reducing activity

Compound: CC[C@@H]1C(=O)OC[C@@H]1Cc1cncn1C [Pilocarpine]
output of clear fluid after administration into a glaucomatous eye: increase the output of clear fluid

Compound: CN[C@H]1CC[C@@H](c2ccc(Cl)c(Cl)c2)c2ccccc21 [Sertraline hydrochloride, (1S-cis)-4-(3,4-dichlorophenyl)-1,2,3,4-tetrahydro-N-methyl-1-nanphthalenamine hydrochloride]
solubility in ethanol ([2]; ethanol): sparingly soluble | solubility in isopropyl alcohol ([2]; isopropyl alcohol): slightly soluble | solubility in water ([2]; water): slightly soluble

Compound: C[C@H](CS)C(=O)N1CCC[C@H]1C(=O)O [captopril]
decrease in mean arterial pressure compared with placebo baseline [3]: equivalent decreases

elevation of plasma levels in the elderly ([4]; elderly, following multiple dosing): 3 fold | half-life ([4]; metabolite, multiple oral once-daily doses of 200 mg sertraline): 65 h | area under the plasma concentration time curve [4]: 2300 ng·h/mL | mean peak plasma concentration (C(max)) [4]: 140 ng/mL
Compound: N[C@H]1CC[C@@H](c2ccc(Cl)c(Cl)c2)c2ccccc21 [desmethylsertraline]

Compound: CNC(=O)Oc1ccc2c(c1)[C@]1(C)CCN(C)[C@@H]1N2C [eserine]
output of clear fluid after administration into a glaucomatous eye: increase the output of clear fluid

Compound: CC(N/C(=N\C#N)Nc1ccncc1)C(C)(C)C (stereo not drawn) [pinacidil]
decrease in mean arterial pressure compared with placebo baseline [3]: equivalent decreases

Compound: COc1cc2nc(N3CCN(C(=O)c4ccco4)CC3)nc(N)c2cc1OC [prazosin]
decrease in mean arterial pressure compared with placebo baseline [3]: equivalent decreases

Compound: CN[C@H]1CC[C@@H](c2ccc(Cl)c(Cl)c2)c2ccccc21 [sertraline]
dose proportionality ([4]; clinical dose range of 50 to 200 mg/day): Linear dose proportionality | area under the plasma concentration time curve [4]: 2800 ng·h/mL | mean peak plasma concentration (C(max)) [4]: 190 ng/mL | increase of bioavailability by food ([4]; oral, with food): about 40% | average terminal elimination half-life ([4]; single or multiple oral once-daily doses of 50 to 400 mg/day): approximately 26 hours | plasma protein bound [5]: Approximately 98% | affinity for binding sites [6]: no significant affinity | effects on norepinephrine and dopamine neuronal reuptake [7]: only very weak effects | psychomotor performance [8]: did not interfere with psychomotor performance | sedation [8]: did not cause sedation

Compound: cyclosporin-A
post-surgical increases in intraocular pressure [9]: reduce post-surgical increases in intraocular pressure
